Data set [1] relates to SW-620. Description: Potency index, ratio of vorinostat IC50 to test compound IC50 for cytotoxicity against human SW620 cells assessed as inhibition of cell growth by MTT assay. It is filed as functional. Background: Tetrazolium assays rely on reduction of a dye to a coloured formazan, in cell work by metabolically active cells.
Data set [2] concerns PC-3. As to the kind of experiment: Potency index, ratio of vorinostat IC50 to test compound IC50 for cytotoxicity against human PC-3 cells assessed as inhibition of cell growth by MTT assay. The data set is classed as functional.
Data set [3] relates to PC-3. As to the kind of experiment: Cytotoxicity against human PC-3 cells assessed as inhibition of cell growth by MTT assay. It is filed as functional, cell-based.
Data set [4] relates to SW-620. As to the kind of experiment: Cytotoxicity against human SW620 cells assessed as inhibition of cell growth by MTT assay. The data set is classed as functional, cell-based.
Data set [5] has as its system ASPC1. Description: Potency index, ratio of vorinostat IC50 to test compound IC50 for cytotoxicity against human ASPC1 cells assessed as inhibition of cell growth by MTT assay. It is filed as functional.
For data set [6], the target named is Histone deacetylase 2 (Homo sapiens, UniProt Q92769). As to the kind of experiment: Inhibition of HDAC2 (unknown origin).
Chain of Histone deacetylase 2 (Q92769 whole entry): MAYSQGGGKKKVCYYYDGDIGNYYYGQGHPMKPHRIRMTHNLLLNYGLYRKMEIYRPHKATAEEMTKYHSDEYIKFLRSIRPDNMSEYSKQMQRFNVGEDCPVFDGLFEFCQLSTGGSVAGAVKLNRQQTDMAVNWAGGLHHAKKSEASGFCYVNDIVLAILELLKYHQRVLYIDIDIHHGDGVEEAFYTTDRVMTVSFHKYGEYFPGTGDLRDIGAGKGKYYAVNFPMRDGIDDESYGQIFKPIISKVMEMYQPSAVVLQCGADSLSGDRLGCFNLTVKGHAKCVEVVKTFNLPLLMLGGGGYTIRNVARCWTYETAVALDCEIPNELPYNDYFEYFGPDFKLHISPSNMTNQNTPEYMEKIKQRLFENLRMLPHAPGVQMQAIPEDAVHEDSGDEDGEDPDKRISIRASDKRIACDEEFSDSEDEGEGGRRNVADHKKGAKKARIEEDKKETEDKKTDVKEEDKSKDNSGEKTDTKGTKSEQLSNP
The subject of data set [7] is NB-4. As to the kind of experiment: Cytotoxicity against human NB-4 cells assessed as inhibition of cell growth by MTT assay. The data set is classed as functional, cell-based.
Data set [8] has as its system Kasumi 1. Description: Cytotoxicity against human Kasumi 1 cells assessed as inhibition of cell growth by MTT assay. The data set is classed as functional, cell-based.
Data set [9] in a line: Cmax in CD1 mouse at 2 mg/kg, iv. The data set is classed as ADME, organism-based. Also on record: dose 2 mg/kg, route iv. Conditions: in vivo.
Data set [10] can be described thus: Clearance in CD1 mouse at 2 mg/kg, iv. The conditions noted are these: in vivo. It is filed as ADME, organism-based.
A short description of data set [11]: AUCinfinity in CD1 mouse at 2 mg/kg, iv. Conditions: in vivo. It is filed as ADME, organism-based. Also noted: dose 2 mg/kg, route iv.
Data set [12] is described as follows: Half life in CD1 mouse at 2 mg/kg, iv. It is filed as ADME, organism-based. Conditions: in vivo.
Data set [13] deals with T1, Protein deacetylase HDAC6 (Homo sapiens, UniProt Q9UBN7).
T1 sequence (Q9UBN7 whole entry): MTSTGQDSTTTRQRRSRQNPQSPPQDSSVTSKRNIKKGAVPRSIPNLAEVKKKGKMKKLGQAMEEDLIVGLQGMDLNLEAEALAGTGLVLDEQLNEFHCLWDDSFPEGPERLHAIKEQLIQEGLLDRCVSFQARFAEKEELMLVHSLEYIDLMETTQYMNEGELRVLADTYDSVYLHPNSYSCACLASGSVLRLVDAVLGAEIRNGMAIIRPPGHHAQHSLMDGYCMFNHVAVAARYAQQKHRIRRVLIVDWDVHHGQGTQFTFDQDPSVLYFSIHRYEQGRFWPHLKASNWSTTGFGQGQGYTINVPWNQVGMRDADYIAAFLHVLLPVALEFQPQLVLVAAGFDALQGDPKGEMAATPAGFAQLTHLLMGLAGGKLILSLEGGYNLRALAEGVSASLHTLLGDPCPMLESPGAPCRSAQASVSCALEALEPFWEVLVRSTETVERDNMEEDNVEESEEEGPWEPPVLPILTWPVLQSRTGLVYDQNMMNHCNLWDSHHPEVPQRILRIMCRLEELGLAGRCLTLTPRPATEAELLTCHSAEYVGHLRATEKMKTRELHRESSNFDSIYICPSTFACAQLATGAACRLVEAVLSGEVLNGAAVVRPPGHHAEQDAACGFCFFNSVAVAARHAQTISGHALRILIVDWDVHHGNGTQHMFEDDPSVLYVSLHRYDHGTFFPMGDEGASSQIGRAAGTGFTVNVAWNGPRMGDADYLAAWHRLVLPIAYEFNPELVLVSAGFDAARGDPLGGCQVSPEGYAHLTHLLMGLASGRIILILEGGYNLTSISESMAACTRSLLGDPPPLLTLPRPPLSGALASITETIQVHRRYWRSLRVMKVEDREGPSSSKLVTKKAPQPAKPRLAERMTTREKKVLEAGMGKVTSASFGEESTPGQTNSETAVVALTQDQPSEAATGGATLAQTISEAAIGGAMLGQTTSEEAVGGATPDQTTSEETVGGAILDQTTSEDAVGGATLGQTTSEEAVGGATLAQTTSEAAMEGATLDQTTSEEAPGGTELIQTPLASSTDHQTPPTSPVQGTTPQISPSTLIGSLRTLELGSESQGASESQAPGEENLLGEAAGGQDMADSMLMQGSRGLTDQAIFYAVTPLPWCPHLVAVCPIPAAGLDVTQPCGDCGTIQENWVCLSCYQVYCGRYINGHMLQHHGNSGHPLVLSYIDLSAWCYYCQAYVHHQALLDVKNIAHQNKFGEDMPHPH
As to the kind of experiment: Inhibition of HDAC6 (unknown origin).

For data set [14], the system named is MDA-MB-231. As to the kind of experiment: Cytotoxicity against human MDA-MB-231 cells assessed as inhibition of cell growth by MTT assay. It is filed as functional, cell-based.
Data set [15] is described as follows: Cytotoxicity against human RWPE-1 cells assessed as inhibition of cell growth by MTT assay. The data set is classed as toxicity, cell-based.
The target of data set [16] is Histone deacetylase 1 (Homo sapiens, UniProt Q13547). As to the kind of experiment: Inhibition of HDAC1 (unknown origin).
Chain of Histone deacetylase 1 (Q13547 whole entry): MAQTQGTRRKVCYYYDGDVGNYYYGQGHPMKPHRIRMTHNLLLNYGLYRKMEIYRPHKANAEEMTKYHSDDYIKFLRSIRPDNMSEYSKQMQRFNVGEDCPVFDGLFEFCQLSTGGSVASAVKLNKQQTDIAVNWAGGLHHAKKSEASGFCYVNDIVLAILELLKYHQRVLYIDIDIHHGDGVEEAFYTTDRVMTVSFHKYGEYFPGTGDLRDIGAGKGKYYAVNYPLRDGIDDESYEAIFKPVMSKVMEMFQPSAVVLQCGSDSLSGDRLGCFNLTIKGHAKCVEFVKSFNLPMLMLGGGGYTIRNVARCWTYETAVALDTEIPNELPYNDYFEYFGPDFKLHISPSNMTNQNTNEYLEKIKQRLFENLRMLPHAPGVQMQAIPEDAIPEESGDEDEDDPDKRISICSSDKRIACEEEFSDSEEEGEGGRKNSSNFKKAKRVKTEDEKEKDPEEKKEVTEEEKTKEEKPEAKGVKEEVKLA
Data set [17] concerns HepG2. Description: Cytotoxicity against human HepG2 cells assessed as inhibition of cell growth by MTT assay. It is filed as functional, cell-based.
Data set [18] in a line: Cytotoxicity against African green monkey Vero cells assessed as inhibition of cell growth by MTT assay. The data set is classed as toxicity, cell-based, Chlorocebus sabaeus.
Data set [19] relates to A549. Description: Cytotoxicity against human A549 cells assessed as inhibition of cell growth by MTT assay. It is filed as functional, cell-based.
For data set [20], the system named is MDA-MB-231. Description: Cytotoxicity against human MDA-MB-231 cells assessed as inhibition of cell growth by MTS assay. The data set is classed as functional, cell-based.
Data set [21] concerns MDA-MB-231. Description: animal or person. It is filed as functional, Homo sapiens. The conditions noted are these: Mus musculus, route po, read-out: TGI.
Description: Antitumor activity against human MDA-MB-231 cells xenografted in mouse assessed as tumor growth inhibition at 25 mg/kg, po relative to control
In data set [22] the test system is T47D. Description: Cytotoxicity against human T47D cells assessed as inhibition of cell growth by MTS assay. It is filed as functional, cell-based.
Data set [23] has as its system MCF7. Description: Cytotoxicity against human MCF7 cells assessed as inhibition of cell growth by MTS assay. The data set is classed as functional, cell-based.

Each structure is given as a SMILES string.

What is called IC50 is the concentration that gives 50% inhibition. As usually defined, the Cmax is the maximum level reached in the sampled fluid or tissue. As a reminder, the clearance is a measure of how efficiently the substance is removed, as volume per time. A word on the AUC(0-inf): it is the area under the concentration-time curve extrapolated to infinity. A word on the half-life: it is the time needed for the level to fall by half in the phase considered.

`Cc1ccc2c(c1)/C(=N\O)C(=O)N2CCCC(=O)NO`: the “Ratio IC50” value in data set [1], in data set [2] and in data set [5] was 4.3 each time. In addition, the values for the IC50 in [3], in data set [4] and in [6] were 490 nM, 490 nM and 910 nM, respectively.

For `Cn1c(CCCCCCC(=O)NO)nc2cc(N(CCCl)CCCl)ccc21` [TINOSTAMUSTINE], the concentration for half-maximal inhibition (IC50) in data set [7] worked out at 900 nM; in data set [8] it was 820 nM.

Turning to `O=C(NO)C(c1ccccc1)c1c(-c2ccc3ccccc3c2)[nH]c2ccccc12` (centres undefined), the highest concentration (Cmax) in data set [9] is 2350 ng/mL. Also, in data set [10], the clearance worked out at 30.7 mL/min/kg. The AUC(0-inf) in data set [11] was 1090 ng·h/mL. This molecule showed a half-life in data set [12] of 1.65 h.

Regarding `N#Cc1cccc(-c2cn(CCCCCCn3cccc(/C=C/C(=O)NO)c3=O)nn2)c1`, the IC50 in data set [13] is 49 nM; in data set [14], 600 nM; in [15], > 50000 nM; in [16] it was 35 nM; in data set [17], 600 nM; in data set [18], > 50000 nM. Also, the IC50 in data set [3] and in data set [19] was 600 nM each time.

For the molecule `CCCCc1nc2cc(/C=C/C(=O)NO)ccc2n1CCN(CC)CC` [PRACINOSTAT], the half-inhibitory concentration (IC50) in data set [20], in data set [22] and in data set [23] was 5340 nM each time. For the same molecule, the inhibition in vivo at 25 mg/kg in [21] was determined as 50%.

The record behind these values is ChEMBL document CHEMBL5230103, “Hydroxamic acid hybrids as the potential anticancer agents: An Overview” (Eur J Med Chem, 2020).
